Test results: patent US7745413B2, “Collection of traceable compounds and uses thereof” (Centre National de la Recherche Scientifique (CNRS), priority 2004, dated 2010)

Target: T1, GPR50-EGFP receptor (Homo sapiens, UniProt Q13585)
T1 construct: signal peptide (SP) of the pCEP4-SP-EGFP vector (N); expressed in transfected cells
Assay: Real-time measurement of energy transfer (FRET) between fluorescent ligand and GPR50-EGFP receptor on HEK 293 cells
Format: binding
Settings: ligand at 500 nM; excitation 470 nm, fluorescence at 510 nm; FIG. 6
Description: The binding of certain molecules was verified with the spectrofluorimeter (equipment previously described (see Example 1)).

T1 sequence (Q13585 9-617 limits assumed): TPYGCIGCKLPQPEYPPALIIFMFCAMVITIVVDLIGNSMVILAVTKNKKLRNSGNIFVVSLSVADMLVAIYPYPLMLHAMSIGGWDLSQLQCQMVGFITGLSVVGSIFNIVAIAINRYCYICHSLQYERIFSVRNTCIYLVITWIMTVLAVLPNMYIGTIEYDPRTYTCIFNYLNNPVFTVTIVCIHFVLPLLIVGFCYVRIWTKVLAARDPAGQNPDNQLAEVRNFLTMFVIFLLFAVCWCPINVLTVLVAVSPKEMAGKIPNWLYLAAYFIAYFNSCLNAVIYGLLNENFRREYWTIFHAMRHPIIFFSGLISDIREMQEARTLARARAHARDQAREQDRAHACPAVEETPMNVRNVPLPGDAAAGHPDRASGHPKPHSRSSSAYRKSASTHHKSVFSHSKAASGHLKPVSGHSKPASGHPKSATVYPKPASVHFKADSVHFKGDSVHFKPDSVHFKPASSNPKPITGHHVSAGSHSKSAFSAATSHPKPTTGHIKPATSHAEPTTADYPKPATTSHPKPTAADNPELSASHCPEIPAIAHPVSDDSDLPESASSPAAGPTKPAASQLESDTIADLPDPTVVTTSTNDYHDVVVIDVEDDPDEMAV

Question: Which energy transfer does the source give for `CCN(CCN(CC)C(=O)C(Cc1c[nH]c2ccccc12)NC(=O)C(CCCCNS(=O)(=O)c1ccc2c(c1)S(=O)(=O)OC21c2ccc(N(CC)CC)cc2Oc2cc(N(CC)CC)ccc21)NC(=O)C1=CCCN(C)C1)Cc1ccccc1` (stereo not shown) [FG 229 F4] here?
Answer: The energy transfer was 2%.
